The text below walks through data of ChEMBL document CHEMBL5370591, “A Potent and Narrow-Spectrum Antibacterial against Clostridioides difficile Infection” (J Med Chem, 2023).

Values after ≈ are worked out from the molar mass of the structure shown.

This test concerns Clostridioides difficile. As to the kind of experiment: Antibacterial activity against Clostridium difficile ATCC 43255 measured after 48 hrs by two fold serial dilution method. Format: functional.
As usually defined, the MIC is the smallest concentration in the dilution series that meets the test's criterion for growth inhibition. Turning to `OCC#Cc1c[nH]nc1-c1nc(-c2ccc(Oc3ccc(C(F)(F)F)cc3)cc2)no1`, the minimal inhibitory concentration (MIC) is above 128 µg/mL. Next, `Oc1ccc(-c2nc(-c3ccc4[nH]c5ccccc5c4c3)no2)cc1`: above 128 µg/mL; `c1cc2cc(-c3nc(-c4ccc5c(c4)OCO5)no3)ccc2[nH]1`: above 128 µg/mL; `Fc1ccccc1-c1noc(-c2ccc3[nH]ccc3c2)n1`: above 128 µg/mL. Compound `Oc1ccc(-c2nc(-c3ccc(OC4CCC4)cc3)no2)cc1` came in with a minimal inhibitory concentration (MIC) above 128 µg/mL.

Take `COc1cc(-c2nc(-c3ccc(Oc4ccc(C(F)(F)F)cc4)cc3)no2)cc(F)c1O`: the MIC worked out at 16 µg/mL (≈ 35.8 µM).

`CCCCOc1ccc(-c2noc(-c3ccc(O)cc3)n2)cc1`: the MIC is above 128 µg/mL.

Take `Oc1ccc(-c2nc(-c3ccc(OC4CC4)cc3)no2)cc1`: the MIC is above 128 µg/mL.

In turn, `Oc1ccc(-c2nc(-c3ccc(C(O)C(F)(F)F)cc3)no2)cc1` (centres undefined) yielded an MIC of 32 µg/mL (≈ 95.2 µM). In turn, `Oc1ccc(-c2nc(-c3ccc(OC4CCOC4)cc3)no2)cc1` (centres undefined) displayed an MIC above 128 µg/mL. The compound `Oc1ccc(Oc2ccc(-c3noc(-c4ccc(O)cc4)n3)cc2)cc1` gave an MIC of 64 µg/mL (≈ 185 µM). As to `O=[N+]([O-])c1ccc(-c2noc(-c3ccc4[nH]ccc4c3)n2)cc1`, the minimal inhibitory concentration (MIC) is above 128 µg/mL.

In the case of `Oc1ccc(-c2nc(-c3ccc(Oc4ccccc4)c(Br)c3)no2)cc1`, the MIC is above 128 µg/mL. In turn, `COC(OC)c1ccc(-c2noc(-c3ccc(O)cc3)n2)cc1` yielded an MIC above 128 µg/mL.

In the case of `Cl.NCCCOc1ccc(-c2noc(-c3ccc(O)cc3)n2)cc1`, the minimal inhibitory concentration (MIC) turned out to be 64 µg/mL. For `O=[N+]([O-])c1cc(Oc2ccc(C(F)(F)F)cc2)cnc1-c1noc(-c2ccc(O)cc2)n1`, the minimal inhibitory concentration (MIC) is above 128 µg/mL. Under `Nc1ccc(-c2nc(-c3ccc(OC4CCCC4)cc3)no2)cc1` stands above 128 µg/mL; under `CS(=O)(=O)Nc1ccc(-c2nc(-c3ccc(OC4CCCC4)cc3)no2)cc1`, above 128 µg/mL. Compound `Clc1nc(-c2ccc(OC3CCCC3)cc2)no1` returned an MIC above 128 µg/mL. Take `COc1ccc2oc3ccc(-c4noc(-c5n[nH]cc5[N+](=O)[O-])n4)cc3c2c1`: the minimum inhibitory concentration (MIC) was 64 µg/mL (≈ 170 µM). `C#CCOc1ccc(-c2noc(-c3ccc(O)cc3)n2)cc1` came in with an MIC of 128 µg/mL (≈ 438 µM). Under `Nc1cc(-c2nc(-c3ccc(Oc4ccc(C(F)(F)F)cc4)cc3)no2)cnc1O` stands above 128 µg/mL; under `Nc1cc(Oc2ccccc2)ccc1-c1noc(-c2ccc(O)cc2)n1`, above 128 µg/mL. In the case of `O=C(O)c1ccc(-c2nc(-c3ccc(OC4CCCC4)cc3)no2)cc1`, the MIC is above 128 µg/mL. `c1cc(-c2noc(-c3ccc4c(c3)CCN4)n2)ccc1OC1CCCC1` registered an MIC above 128 µg/mL. `Oc1ccc(-c2nc(-c3ccc(Oc4ccccc4CBr)cc3)no2)cc1`: the MIC is 8 µg/mL (≈ 18.9 µM). `C[C@@H](N)c1nc(-c2ccc(OC3CCCC3)cc2)no1`: the MIC was above 128 µg/mL. `FC(F)(F)c1ccc(Oc2ccc(-c3noc(-c4n[nH]cc4Cl)n3)cc2)cc1` displayed an MIC above 128 µg/mL. In turn, `Cl.O=[N+]([O-])c1c[nH]c(-c2nc(-c3ccc(OC4CCNCC4)cc3)no2)n1` came in with an MIC above 128 µg/mL. With `c1cc2cc(-c3nc(-c4ccc5c(c4)CCN5)no3)ccc2[nH]1`, the minimal inhibitory concentration (MIC) is above 128 µg/mL.

For the compound `O=[N+]([O-])c1ccc(-c2nc(-c3ccc(Oc4ccc(C(F)(F)F)cc4)cc3)no2)cc1`, the minimal inhibitory concentration (MIC) is above 128 µg/mL. The compound `CCC(C)Nc1c[nH]nc1-c1nc(-c2ccc(Oc3ccc(C(F)(F)F)cc3)cc2)no1` (centres undefined) displayed an MIC above 128 µg/mL. For the compound `Cl.Nc1nc(-c2ccc(OC3CCCC3)cc2)no1`, the MIC was above 128 µg/mL.

In turn, `Oc1ccc(-c2nc(-c3ccc(Oc4ccc(I)cc4)cc3)no2)cc1` returned an MIC of 16 µg/mL (≈ 35.1 µM). `O=C1C[C@@H](c2nc(-c3ccc(Oc4ccc(C(F)(F)F)cc4)cc3)no2)CN1` returned an MIC above 128 µg/mL. With `O=C1C[C@H](c2nc(-c3ccc(Oc4ccc(C(F)(F)F)cc4)cc3)no2)CN1`, the minimum inhibitory concentration (MIC) was above 128 µg/mL. `Oc1ccc(-c2nc(-c3ccc(Oc4ccc(C(F)(F)F)cc4)cc3)no2)cn1`: the minimal inhibitory concentration (MIC) is above 128 µg/mL. Under `FC(F)(F)c1ccc(Oc2ccc(-c3noc(-c4ccncc4)n3)cc2)cc1` stands above 128 µg/mL. In turn, `Oc1ccc(-n2cc(-c3ccc(Oc4ccccc4)cc3)nn2)cc1` had an MIC above 128 µg/mL. `O=[N+]([O-])c1ccc(-c2nc(-c3ccc(OC4CCCC4)cc3)no2)cc1` had an MIC above 128 µg/mL.

`O=C(NNC(=O)c1ccc(OC2CCCC2)cc1)c1ccc(O)cc1` displayed an MIC above 128 µg/mL. Under `CC(C)S(=O)(=O)Oc1ccc(-c2noc(-c3ccc(O)cc3)n2)cc1` stands above 128 µg/mL; under `FC(F)(F)c1ccc(Oc2ccc(-c3noc(-c4n[nH]cc4Nc4c[nH]c5ncccc45)n3)cc2)cc1`, above 128 µg/mL; under `FC(F)(F)c1ccc(Oc2ccc(-c3noc(-c4cn[nH]c4)n3)cc2)cc1`, above 128 µg/mL.

The compound `Oc1cccc(/C=C/c2nc(-c3ccc(OC4CCCC4)cc3)no2)c1` yielded an MIC above 128 µg/mL.

Take `Oc1ccc(-c2noc(-c3ccc(O)cc3)n2)cc1`: the MIC was found to be 128 µg/mL (≈ 503 µM). Next, `NC1CCN(c2ccc(-c3noc(-c4ccc(O)cc4)n3)cc2)CC1`: 64 µg/mL (≈ 190 µM).

Consider `O=C(c1ccc(-c2noc(-c3ccc(O)cc3)n2)cc1)C(F)(F)F`, for which the lowest concentration to inhibit growth (MIC) was 8 µg/mL (≈ 23.9 µM). `CCCCNc1c[nH]nc1-c1nc(-c2ccc(Oc3ccc(C(F)(F)F)cc3)cc2)no1` gave a minimal inhibitory concentration (MIC) above 128 µg/mL.

Compound `c1nc2cc(-c3nc(-c4ccc(OC5CCCC5)cc4)no3)ccc2[nH]1` had a minimal inhibitory concentration (MIC) of 128 µg/mL (≈ 370 µM). For `Cl.O=[N+]([O-])c1c[nH]c(-c2nc(-c3ccc(CN4CCCC4)cc3)no2)n1`, the minimal inhibitory concentration (MIC) is above 128 µg/mL. `FC(F)(F)c1ccc(Oc2ccc(-c3noc(-c4n[nH]cc4NC4CCCCC4)n3)cc2)cc1`: the MIC is above 128 µg/mL.

`FC(F)(F)c1ccc(Oc2ccc(-c3noc(-c4cn[nH]n4)n3)cc2)cc1` showed an MIC above 128 µg/mL. Under `FC(F)(F)c1ccc(Oc2ccc(-c3noc(-c4nc[nH]n4)n3)cc2)cc1` stands above 128 µg/mL.

Turning to `FC(F)(F)c1ccc(Oc2ccc(-c3noc(-c4ccc(Br)cc4)n3)cc2)cc1`, the MIC is above 128 µg/mL. `C[C@@H](NC(=O)OC(C)(C)C)c1nc(-c2ccc(OC3CCCC3)cc2)no1` registered an MIC above 128 µg/mL. For the compound `Oc1ccc(-c2nnc(-c3ccc(OC4CCCC4)cc3)o2)cc1`, the minimal inhibitory concentration (MIC) was above 128 µg/mL. For the compound `Nc1cc(-c2noc(-c3ccc(O)cc3)n2)ccc1Oc1ccccc1`, the minimal inhibitory concentration (MIC) is above 128 µg/mL. Next, `Cl.NCc1ccc(-c2nc(-c3ccc(OC4CCCC4)cc3)no2)cc1`: 8 µg/mL; `COc1ccc(-c2nc(-c3ccc(Oc4ccc(C(F)(F)F)cc4)cc3)no2)cc1OC`: above 128 µg/mL. For the compound `CC(C)(C)OC(=O)N1CCC(Oc2ccc(-c3noc(-c4nc([N+](=O)[O-])c[nH]4)n3)cc2)CC1`, the MIC is above 128 µg/mL. Compound `c1cc2cc(-c3nc(-c4ccc(OC5CCCC5)cc4)no3)ccc2[nH]1` yielded a minimum inhibitory concentration (MIC) of 8 µg/mL (≈ 23.2 µM). For `CC(C)(C)Oc1ccc(-c2noc(-c3ccc(O)cc3)n2)cc1`, the MIC was above 128 µg/mL.

Turning to `O=[N+]([O-])c1c[nH]c(Nc2c[nH]nc2-c2nc(-c3ccc(Oc4ccc(C(F)(F)F)cc4)cc3)no2)c1`, the MIC was determined as 8 µg/mL (≈ 16.1 µM). As to `FC(F)(F)c1ccc(Oc2ccc(-c3noc(-c4n[nH]cc4Br)n3)cc2)cc1`, the MIC was above 128 µg/mL.

With `Oc1ccc(-c2nc(-c3ccc4oc5ccc(C(F)(F)F)cc5c4c3)no2)cc1`, the MIC was above 128 µg/mL. Under `Oc1ccc(-c2nc(-c3ccc(Oc4ccc(C(F)(F)F)cc4)nc3)no2)cc1` stands above 128 µg/mL; under `FC(F)(F)Oc1ccc(-c2noc(-c3ccc4[nH]ccc4c3)n2)cc1`, above 128 µg/mL.

For the compound `Oc1ccc(Cc2nc(-c3ccc(OC4CCCC4)cc3)no2)cc1`, the MIC was found to be 16 µg/mL (≈ 47.6 µM). Consider `COc1ccc(-c2noc(-c3ccc(O)cc3)n2)cc1OC`, for which the minimum inhibitory concentration (MIC) was above 128 µg/mL. `O=C(Nc1c[nH]nc1-c1nc(-c2ccc(Oc3ccc(C(F)(F)F)cc3)cc2)no1)c1ccccn1` registered an MIC above 128 µg/mL.

Compound `Oc1ccc(-c2nc(-c3ccc(OC4CCNCC4)cc3)no2)cc1` returned a minimal inhibitory concentration (MIC) of 64 µg/mL (≈ 190 µM). Under `Oc1nc(-c2ccc(OC3CCCC3)cc2)no1` stands 64 µg/mL (≈ 260 µM); under `Cn1c(-c2nc(-c3ccc(OC4CCCC4)cc3)no2)cnc1[N+](=O)[O-]`, 32 µg/mL (≈ 90.1 µM).

Take `FC(F)(F)c1ccc(Oc2ccc(-c3noc(-c4c[nH]cn4)n3)cc2)cc1`: the lowest concentration to inhibit growth (MIC) was 8 µg/mL (≈ 21.5 µM). Under `c1cc2cc(-c3nc(-c4ccc5occc5c4)no3)ccc2[nH]1` stands above 128 µg/mL. Compound `C[C@@H](NC(=O)OC(C)(C)C)C(=O)N[C@H](C)c1nc(-c2ccc(OC3CCCC3)cc2)no1` registered a minimal inhibitory concentration (MIC) above 128 µg/mL.

For the compound `CN1CCN(c2ccc(-c3noc(-c4ccc(O)cc4)n3)cc2)CC1`, the MIC is above 128 µg/mL.

`Oc1ccc(-c2nc(-c3ccc4oc5ccccc5c4c3)no2)cc1` displayed an MIC above 128 µg/mL.

Consider `COc1ccc(-c2nc(-c3ccc(Oc4ccc(C(F)(F)F)cc4)cc3)no2)cc1[N+](=O)[O-]`, for which the MIC is above 128 µg/mL. In the case of `FC(F)(F)c1ccc(Oc2ccc(-c3noc(-c4n[nH]cc4Nc4n[nH]c5ccccc45)n3)cc2)cc1`, the MIC is above 128 µg/mL. `CCOc1ccc(-c2noc(-c3ccc(O)cc3)n2)cc1` gave a minimum inhibitory concentration (MIC) above 128 µg/mL. In turn, `Oc1ccc(-c2nc(N3CCN(c4cccc(Cl)c4)CC3)no2)cc1` yielded an MIC above 128 µg/mL. `Oc1ccc(-c2nc(-c3ccc(N4CCOCC4)cc3)no2)cc1` yielded an MIC above 128 µg/mL. `O=[N+]([O-])c1c[nH]nc1-c1nc(-c2ccc(Oc3ccccc3)cc2)no1` gave a minimal inhibitory concentration (MIC) above 128 µg/mL. Under `Oc1ccc(-c2nc(-c3ccc4oc5ccc(F)cc5c4c3)no2)cc1` stands above 128 µg/mL; under `O=[N+]([O-])c1cn(CCO)c(-c2nc(-c3ccc(OC4CCCC4)cc3)no2)n1`, above 128 µg/mL; under `Nc1c[nH]nc1-c1nc(-c2ccc(Oc3ccc(C(F)(F)F)cc3)cc2)no1`, above 128 µg/mL. The compound `FC(F)(F)c1ccc(Oc2ccc(-c3noc(-c4n[nH]cc4Nc4cc5ccccc5[nH]4)n3)cc2)cc1` registered an MIC above 128 µg/mL. For `CCCOc1ccc(-c2noc(-c3ccc(O)cc3)n2)cc1`, the MIC was above 128 µg/mL. As for `Oc1ccc(-c2nc(-c3ccc(OC(F)(F)F)cc3)no2)cc1`, the minimum inhibitory concentration (MIC) was determined as 64 µg/mL (≈ 199 µM). The compound `Oc1ccc(-c2cc(-c3ccc(Oc4ccccc4)cc3)no2)cc1` came in with a minimal inhibitory concentration (MIC) above 128 µg/mL. `C#CCCOc1ccc(-c2noc(-c3ccc(O)cc3)n2)cc1`: the MIC was above 128 µg/mL. On to `Cl.Oc1ccc(-c2nc(-c3ccc(OC4CCNC4)cc3)no2)cc1` (centres undefined), for which inhibition of growth (MIC) required 64 µg/mL.
